Mutagenic call data for ten compounds are collected here from PubChem BioAssay AID1259407 (Chemical Carcinogenesis Research Information System (CCRIS), 2018).

The source made the active and inactive calls. The rule behind the calls is not given here.

In this data set the test system is CCRIS mutagenicity, Ames/micronucleus/aberration tests. Briefly: CCRIS mutagenicity studies.
[1] abbreviates: Test System: AMES SALMONELLA TYPHIMURIUM, Strain/Indicator: TA98, Metabolic Activation: NONE, Method: STANDARD PLATE.
Setting [2] is: Test System: AMES SALMONELLA TYPHIMURIUM, Strain/Indicator: TA100, Metabolic Activation: NONE, Method: STANDARD PLATE.
[3] abbreviates: Test System: AMES SALMONELLA TYPHIMURIUM, Strain/Indicator: TA100, Metabolic Activation: RAT, LIVER, S-9, AROCLOR 1254, Method: STANDARD PLATE.
Setting [4] is: Test System: AMES SALMONELLA TYPHIMURIUM, Strain/Indicator: TA97, Metabolic Activation: NONE, Method: PREINCUBATION
The mark [5] stands for this setting: Test System: AMES SALMONELLA TYPHIMURIUM, Strain/Indicator: TA98, Metabolic Activation: NONE, Method: PREINCUBATION
Where [6] appears, read: Test System: AMES SALMONELLA TYPHIMURIUM, Strain/Indicator: TA100, Metabolic Activation: NONE, Method: PREINCUBATION

For `OCc1c2ccccc2c(CO)c2c1ccc1ccccc12`, the mutagenic call by setting is: (Test System: AMES SALMONELLA TYPHIMURIUM, Strain/Indicator: TA98, Metabolic Activation: RAT, LIVER, S-9, NADPH GENERATING SYSTEM, Method: PREINCUBATION) “inactive; negative”; (Test System: AMES SALMONELLA TYPHIMURIUM, Strain/Indicator: TA98, Metabolic Activation: RAT, LIVER, S-105, PAPS GENERATING SYSTEM, Method: PREINCUBATION) “active; positive”.
Turning to `Cc1ccc2c(c1)c(=NC(=O)c1ccc([N+](=O)[O-])cc1)sn2C(=O)c1ccc([N+](=O)[O-])cc1`, the mutagenic call (Test System: AMES SALMONELLA TYPHIMURIUM, Strain/Indicator: TA100, Metabolic Activation: S-9, Method: STANDARD PLATE) is “active; positive”.
In the case of `COc1c(OC)c2occc2c2oc(=O)ccc12`, the mutagenic call under setting [1] was “inactive; negative” and the mutagenic call (Test System: AMES SALMONELLA TYPHIMURIUM, Strain/Indicator: TA98, Metabolic Activation: RAT, LIVER, S-9, PHENOBARBITAL, Method: STANDARD PLATE) was “inactive; negative”.
As for `ClCCN(CCCl)c1ccc2ccccc2c1`, the mutagenic call is “active; positive” under setting [2]; “active; positive” under setting [3]; “active; positive” (Test System: AMES SALMONELLA TYPHIMURIUM, Strain/Indicator: TA100, Metabolic Activation: RAT, LIVER, S-9, AROCLOR (10%), Method: STANDARD PLATE); “active; positive” (Test System: AMES SALMONELLA TYPHIMURIUM, Strain/Indicator: TA100, Metabolic Activation: RAT, LIVER, S-9, AROCLOR (WITHOUT ADDED COFACTORS), Method: STANDARD PLATE); “active; positive” (Test System: AMES SALMONELLA TYPHIMURIUM, Strain/Indicator: TA1535, Metabolic Activation: NONE, Method: STANDARD PLATE); “active; positive” (Test System: AMES SALMONELLA TYPHIMURIUM, Strain/Indicator: TA1535, Metabolic Activation: RAT, LIVER, S-9, AROCLOR (10%), Method: STANDARD PLATE).
Consider `Cc1c2c(cc3ccccc13)-c1ccccc1C1NC21` (centres undefined), for which the mutagenic call is “active; positive” under setting [4]; “active; positive” under setting [5]; “active; positive” under setting [1]; “active; positive” under setting [2]; “active; positive” (Test System: AMES SALMONELLA TYPHIMURIUM, Strain/Indicator: TA104, Metabolic Activation: NONE, Method: PREINCUBATION).
Consider `ICI`, for which the mutagenic call (Test System: AMES SALMONELLA TYPHIMURIUM, Strain/Indicator: TA102, Metabolic Activation: NONE, Method: STANDARD PLATE) is “inactive; negative”; the mutagenic call (Test System: AMES SALMONELLA TYPHIMURIUM, Strain/Indicator: TA2638, Metabolic Activation: NONE, Method: STANDARD PLATE) was “inactive; negative”; the mutagenic call (Test System: E. COLI, Strain/Indicator: WP2 (PKM101), Metabolic Activation: NONE, Method: STANDARD PLATE) is “inactive; negative”; the mutagenic call (Test System: E. COLI, Strain/Indicator: WP2 UVRA (PKM101), Metabolic Activation: NONE, Method: STANDARD PLATE) was “active; positive”.
For the compound `CC(C)CCC[C@@H](C)[C@H]1CC[C@H]2[C@@H]3C[C@H]4O[C@]45C[C@@H](O)CC[C@]5(C)[C@H]3CC[C@]12C`, the mutagenic call (Test System: CHINESE HAMSTER V-79, Strain/Indicator: V-79/6-THIOGUANINE, Metabolic Activation: NONE) is “active; positive” and the mutagenic call (Test System: CHINESE HAMSTER V-79, Strain/Indicator: V-79/OUABAIN, Metabolic Activation: NONE) was “inactive; negative”.
For `O=C1CCC(=O)N1c1ccc(Cl)cc1`, the mutagenic call under setting [1] was “inactive; negative”; the mutagenic call (Test System: AMES SALMONELLA TYPHIMURIUM, Strain/Indicator: TA98, Metabolic Activation: RAT, LIVER, S-9, AROCLOR 1254, Method: STANDARD PLATE) was “inactive; negative”; the mutagenic call under setting [2] is “inactive; negative”; the mutagenic call under setting [3] was “inactive; negative”.
Turning to `CC(C)CC=O`, the mutagenic call by setting is: under setting [5], “inactive; negative”; (Test System: AMES SALMONELLA TYPHIMURIUM, Strain/Indicator: TA98, Metabolic Activation: RAT, LIVER, S-9, AROCLOR 1254, Method: PREINCUBATION) “inactive; negative”; under setting [6], “inactive; negative”; (Test System: AMES SALMONELLA TYPHIMURIUM, Strain/Indicator: TA100, Metabolic Activation: RAT, LIVER, S-9, AROCLOR 1254, Method: PREINCUBATION) “inactive; negative”; (Test System: AMES SALMONELLA TYPHIMURIUM, Strain/Indicator: TA102, Metabolic Activation: NONE, Method: PREINCUBATION) “inactive; negative”; (Test System: AMES SALMONELLA TYPHIMURIUM, Strain/Indicator: TA102, Metabolic Activation: RAT, LIVER, S-9, AROCLOR 1254, Method: PREINCUBATION) “inactive; negative”.
`Clc1cccc(-c2ccc(Cl)c(Cl)c2Cl)c1Cl`: the mutagenic call was “inactive; negative” (Test System: AMES SALMONELLA TYPHIMURIUM, Strain/Indicator: TA97, Metabolic Activation: HAMSTER, LIVER, S-9, AROCLOR 1254 (10 OR 30%), Method: PREINCUBATION); “inactive; negative” under setting [4]; “inactive; negative” (Test System: AMES SALMONELLA TYPHIMURIUM, Strain/Indicator: TA97, Metabolic Activation: RAT, LIVER, S-9, AROCLOR 1254 (10 OR 30%), Method: PREINCUBATION); “inactive; negative” (Test System: AMES SALMONELLA TYPHIMURIUM, Strain/Indicator: TA98, Metabolic Activation: HAMSTER, LIVER, S-9, AROCLOR 1254 (10 OR 30%), Method: PREINCUBATION); “inactive; negative” under setting [5]; “inactive; negative” (Test System: AMES SALMONELLA TYPHIMURIUM, Strain/Indicator: TA98, Metabolic Activation: RAT, LIVER, S-9, AROCLOR 1254 (10 OR 30%), Method: PREINCUBATION). In addition, the mutagenic call by setting is: (Test System: AMES SALMONELLA TYPHIMURIUM, Strain/Indicator: TA100, Metabolic Activation: HAMSTER, LIVER, S-9, AROCLOR 1254 (10 OR 30%), Method: PREINCUBATION) “inactive; negative”; under setting [6], “inactive; negative”; (Test System: AMES SALMONELLA TYPHIMURIUM, Strain/Indicator: TA100, Metabolic Activation: RAT, LIVER, S-9, AROCLOR 1254 (10 OR 30%), Method: PREINCUBATION) “inactive; negative”; (Test System: AMES SALMONELLA TYPHIMURIUM, Strain/Indicator: TA1535, Metabolic Activation: HAMSTER, LIVER, S-9, AROCLOR 1254 (10 OR 30%), Method: PREINCUBATION) “inactive; negative”; (Test System: AMES SALMONELLA TYPHIMURIUM, Strain/Indicator: TA1535, Metabolic Activation: NONE, Method: PREINCUBATION) “inactive; negative”; (Test System: AMES SALMONELLA TYPHIMURIUM, Strain/Indicator: TA1535, Metabolic Activation: RAT, LIVER, S-9, AROCLOR 1254 (10 OR 30%), Method: PREINCUBATION) “inactive; negative”. For the same compound, the mutagenic call is “inactive; negative” (Test System: AMES SALMONELLA TYPHIMURIUM, Strain/Indicator: TA1537, Metabolic Activation: HAMSTER, LIVER, S-9, AROCLOR 1254 (10 OR 30%), Method: PREINCUBATION); “inactive; negative” (Test System: AMES SALMONELLA TYPHIMURIUM, Strain/Indicator: TA1537, Metabolic Activation: NONE, Method: PREINCUBATION); “inactive; negative” (Test System: AMES SALMONELLA TYPHIMURIUM, Strain/Indicator: TA1537, Metabolic Activation: RAT, LIVER, S-9, AROCLOR 1254 (10 OR 30%), Method: PREINCUBATION); “inactive; negative” (Test System: E. COLI, Strain/Indicator: WP2 UVRA, Metabolic Activation: HAMSTER, LIVER, S-9, AROCLOR 1254, Method: STANDARD PLATE); “inactive; negative” (Test System: E. COLI, Strain/Indicator: WP2 UVRA, Metabolic Activation: HAMSTER, LIVER, S-9, Method: STANDARD PLATE); “inactive; negative” (Test System: E. COLI, Strain/Indicator: WP2 UVRA, Metabolic Activation: MOUSE, LIVER, S-9, AROCLOR 1254, Method: STANDARD PLATE). The mutagenic call was “inactive; negative” (Test System: E. COLI, Strain/Indicator: WP2 UVRA, Metabolic Activation: MOUSE, LIVER, S-9, Method: STANDARD PLATE); “inactive; negative” (Test System: E. COLI, Strain/Indicator: WP2 UVRA, Metabolic Activation: NONE, Method: STANDARD PLATE); “inactive; negative” (Test System: E. COLI, Strain/Indicator: WP2 UVRA, Metabolic Activation: RAT, LIVER, S-9, AROCLOR 1254, Method: STANDARD PLATE); “inactive; negative” (Test System: E. COLI, Strain/Indicator: WP2 UVRA, Metabolic Activation: RAT, LIVER, S-9, Method: STANDARD PLATE).
